The values below come from patent publication US11807635B2, “Nitrile derivative that acts as inhibitor of dipeptidyl peptidase 1 and use thereof” (HAISCO PHARMACEUTICALS PTE. LTD, priority 2020, dated 2023).

Data set [1] is described as follows: Pharmacokinetic experiment in rats. It is filed as in vivo. Conditions: rat, male SD rats, plasma; for Vd: read-out: Vdss. The protocol: 1.1 Test animals: Male SD rats, about 220 g, 6-8 weeks old, 6 rats/compound. The rats were purchased from CHENGDU DOSSY EXPERIMENTAL ANIMALS CO., LTD.
1.2 Test design: On the day of the experiment, 6 SD rats were randomly grouped according to their body weight. The rats were fasted but given water for 12-14 h one day before the administration, and were fed 4 h after the administration.
Before and after the administration, 0.1 ml of blood was taken from the orbit of the rats under isoflurane anesthesia and placed in an EDTAK2 centrifuge tube. The blood was centrifuged at 5000 rpm and 4° C. for 10 min to collect plasma. Blood sampling time point for the intravenous administration group: 0, 5, 15, 30 min, 1, 2, 4, 6, 8, and 24 h; and blood sampling time point for the intragastric administration group: 0, 5, 15, 30 min, 1, 2, 4, 6, 8, and 24 h. Before analysis and detection, all samples were stored at −80° C.

Data set [2] addresses Recombinant human DPP1 enzyme (Homo sapiens (Human), UniProt P53634). Briefly: In vitro DPP1 enzyme activity assay. In kind it is biochemical. Conditions: recombinant human DPP1 activated with cathepsin L, substrate Gly-Arg-AMC, fluorescence; read-out: DPP1 inhibitory activity IC50.
Protocol: Recombinant human DPP1 enzyme (R&D Systems, Cat. No. 1071-CY) at a final concentration of 100 μg/mL was mixed with recombinant human cathepsin L (R&D Systems, Cat. No. 952-CY) at a final concentration of 20 μg/mL were mixed and incubated at room temperature for 1 hour to activate the DPP1 enzyme. The activated DPP1 enzyme was diluted 100-fold, and 5 μL of compounds at different concentrations and 5 μL of the diluted DPP1 enzyme were added to a 384-well plate and incubated at room temperature for 30 minutes. […] IC50 values were calculated using the DosResp function of the Origin2019 software.

pIC50: −log10 of the molar value. Bounds are passed on as bounds.

Chain of Recombinant human DPP1 enzyme (P53634 25-134): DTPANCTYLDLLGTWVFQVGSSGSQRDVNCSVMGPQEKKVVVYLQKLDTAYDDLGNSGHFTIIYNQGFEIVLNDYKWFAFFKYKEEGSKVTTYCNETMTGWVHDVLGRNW
Chain of Recombinant human DPP1 enzyme (P53634 231-394): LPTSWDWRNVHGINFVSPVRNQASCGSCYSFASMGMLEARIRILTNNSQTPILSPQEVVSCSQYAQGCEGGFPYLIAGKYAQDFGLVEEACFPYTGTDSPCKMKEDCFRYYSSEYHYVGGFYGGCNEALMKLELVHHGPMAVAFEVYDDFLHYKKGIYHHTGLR
Chain of Recombinant human DPP1 enzyme (P53634 395-463): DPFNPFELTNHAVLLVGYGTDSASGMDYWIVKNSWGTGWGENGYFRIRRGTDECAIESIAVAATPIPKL

Broadly, the AUC(0-t) is exposure summed from dosing to a finite time, without extrapolation to infinity. A word on the clearance: it is a measure of how efficiently the substance is removed, as volume per time. Read a high clearance as efficient removal. A word on the bioavailability: it is dose-corrected exposure relative to a reference, in per cent. Read a high bioavailability as much systemic uptake. For the compound `Cn1c(=O)oc2ccc(-c3ccc(C[C@@H](C#N)NC(=O)[C@@H]4CNCCCO4)c(F)c3)cc21` [Compound 1, (S)—N—((S)-1-cyano-2-(2-fluoro-4-(3-methyl-2-oxo-2,3-dihydrobenzo[d]oxazol-5-yl)phenyl)ethyl)-1,4-oxazepane-2-carboxamide], in data set [1] (iv, intravenously 1 mg/kg), the AUC(0-t) was determined as 9500 ng·h/mL, the clearance came to 1.66 mL/min/kg and the Vd was 0.753 L/kg. In data set [1] (po, intragastrically 3 mg/kg), the bioavailability was over 100% and the exposure AUC(0-t) was 31200 ng·h/mL.

Broadly, the pIC50 is −log10 of the IC50, conventionally taken in molar units. As for `N#C[C@H](Cc1ccc(-c2ccc3c(c2)CCNC3=O)cc1F)NC(=O)[C@@H]1CNCCCO1` [Compound 10, (S)—N—((S)-1-cyano-2-(2-fluoro-4-(1-oxo-1,2,3,4-tetrahydroisoquinolin-6-yl)phenyl)ethyl)-1,4-oxazepane-2-carboxamide], in data set [2], the pIC50 is 8.17.

As for `N#C[C@H](Cc1ccc(C#CC2CCCC2)cc1F)NC(=O)[C@@H]1CNCCCO1` [Compound 11, (S)—N—((S)-1-cyano-2-(4-(cyclopentylethynyl)-2-fluorophenyl)ethyl)-1,4-oxazepane-2-carboxamide], the pIC50 in data set [2] is 6.62.

With `Cc1nc(-c2ccc(C[C@@H](C#N)NC(=O)[C@@H]3CNCCCO3)c(F)c2)sc1C#N` [Compound 12, (S)—N—((S)-1-cyano-2-(4-(5-cyano-4-methylthiazol-2-yl)-2-fluorophenyl)ethyl)-1,4-oxazepane-2-carboxamide], the pIC50 in data set [2] was 7.68.

As for `N#C[C@H](Cc1ccc(-c2nc3ccccc3s2)cc1F)NC(=O)[C@@H]1CNCCCO1` [Compound 13, (S)—N—((S)-2-(4-(benzo[d]thiazol-2-yl)-2-fluorophenyl)-1-cyanoethyl)-1,4-oxazepane-2-carboxamide], the pIC50 in data set [2] is 7.15.

In the case of `CN1CCN(Cc2ccc(-c3ccc(C[C@@H](C#N)NC(=O)[C@@H]4CNCCCO4)c(F)c3)cc2)CC1` [Compound 14, (S)—N—((S)-1-cyano-2-(3-fluoro-4′-((4-methylpiperazin-1-yl)methyl)-[1,1′-biphenyl]-4-yl)ethyl)-1,4-oxazepane-2-carboxamide], in data set [2], the negative logarithm of the IC50 (pIC50) was 7.89.

`Cc1csc(-c2ccc(C[C@@H](C#N)NC(=O)[C@@H]3CNCCCO3)c(F)c2)n1` [Compound 15, (S)—N—((S)-1-cyano-2-(2-fluoro-4-(4-methylthiazol-2-yl)phenyl)ethyl)-1,4-oxazepane-2-carboxamide]: the negative-log IC50 (pIC50) in data set [2] is 7.48.

As for `N#Cc1ccc(-c2ccc(C[C@@H](C#N)NC(=O)[C@@H]3CNCCCO3)c(F)c2)cc1C1CC1` [Compound 17, (S)—N—((S)-1-cyano-2-(4′-cyano-3′-cyclopropyl-3-fluoro-[1,1′-biphenyl]-4-yl)ethyl)-1,4-oxazepane-2-carboxamide], in data set [2], the pIC50 was 8.13.

Take `N#Cc1ccc(-c2ccc(C[C@@H](C#N)NC(=O)[C@@H]3CNCCCO3)c(F)c2)cc1C(F)(F)F` [Compound 29, (S)—N—((S)-1-cyano-2-(4′-cyano-3-fluoro-3′-(trifluoromethyl)-[1,1′-biphenyl]-4-yl)ethyl)-1,4-oxazepane-2-carboxamide]: the pIC50 in data set [2] is 8.31.

Consider `Cn1c(=O)oc2ccc(-c3cc(F)c(C[C@@H](C#N)NC(=O)[C@@H]4CNCCCO4)cn3)cc21` [Compound 35, (S)—N—((S)-1-cyano-2-(4-fluoro-6-(3-methyl-2-oxo-2,3-dihydrobenzo[d]oxazol-5-yl)pyridin-3-yl)ethyl)-1,4-oxazepane-2-carboxamide], for which the negative logarithm of the IC50 (pIC50) in data set [2] is 8.40.

Consider `COC1CNCC(C(=O)N[C@H](C#N)Cc2ccc(-c3ccc(S(F)(F)(F)(F)F)cc3)cc2F)OC1` (stereo partly drawn) [Compound 43, N—((S)-1-cyano-2-(3-fluoro-4′-(pentafluoro-16-sulfanyl)-[1,1′-biphenyl]-4-yl)ethyl)-6-methoxy-1,4-oxazepane-2-carboxamide], for which, in data set [2], the negative logarithm of the IC50 (pIC50) was 9.52.

As for `Cn1c(=O)oc2ccc(-c3ccc(C[C@@H](C#N)NC(=O)[C@@H]4CNCCCO4)cc3)cc21` [INS1007, reference compound], in data set [1] (iv, intravenously 1 mg/kg), the exposure AUC(0-t) worked out at 8400 ng·h/mL, the clearance was found to be 2.08 mL/min/kg and the Vd came to 0.738 L/kg. In addition, in data set [1] (po, intragastrically 3 mg/kg), the bioavailability came to 88.1% and the AUC(0-t) was 22200 ng·h/mL.
